Test results from US6921531B2, “Administering bifunctional molecules containing a drug moiety and presenter protein ligand for therapy” (The Board of Trustees of the Leland Stanford Junior …, priority 1998, dated 2005).
pIC50: −log10 of the molar value. Read-outs that look alike come from different tables or passages of the source. Blank lines part the entries; values can stand above or below the molecule they belong to.

Columns and labels:
alkaline phosphatase = settings: known inhibitor; cited from earlier work
Fyn SH2 domain = target: T1, Fyn SH2 domain (Homo sapiens, UniProt P06241); assay: Competition binding assay of radioactive Fyn SH2 domain to pYEEI beads
T1 construct: The Fyn, Lck and PLC SH2 domains were expressed in bacteria as GST fusion proteins; GST (cleaved yes); made in house; host or cells: bacteria
Source text: (§1) The pYEEI peptide was coupled to Affi-Gel 10 beads (Biorad) via its amino-group. The Fyn, Lck and PLC SH2 domains were expressed in bacteria as GST fusion proteins. The linker between the GST protein and the SH2 domain contained a thrombin cleavage site and a protein kinase A (PKA) phosphorylation site. The fusion protein on glutathione beads was radioactively labeled at the PKA phosphorylation site using PKA (Sigma). After extensive washing of the beads, the radioactive SH2 domain was released by cleavage with thrombin (Sigma). In a typical binding assay, 7.5 L of a 1:1 peptide bead slurry were incubated with the radioactive SH2 domain (200 nM) for 2 hours in 100 L of binding buffer (20 mM Tris pH7.2; 150 mM NaCl). In order to separate the radioactive protein bound to the beads, the binding reaction was transfered into a PCR tube (USA Scientific Plastic), whose bottom had been punctured with a 26gauge needle. The PCR tube was placed in a 0.5 mL Eppendorf tube which in turn was placed in a regular 1.5 mL Eppendorf tube. The tubes were spun for 1 second at maximal speed in an Eppendorf centrifuge resulting in the separation of the beads remaining in the PCR tube and the supernatant, which was collected in the 0.5 ml Eppendorf tube. The beads were resuspended in […] PBS and the radioactivity was counted in a liquid scintillation counter after addition of 3 ml scintillation fluid. The radioactivity remaining in the 100 L supernatant was counted in the same way. It was determined that under the conditions described 65% Fyn, 25% PLC and 15%Lck SH2 domain were bound to the beads. By increasing the amount of beads, up to 80% Fyn, 40% PLC and 25% Lck could be bound. These amounts reflect the active fraction of SH2 domains in the different protein preparations.
In order to determine the relative affinity of the SH2 domains for FKpYEEI or SLFpYEEI alone and FKpYEEI or SLFpYEEI bound to FKBP12 and FKBP52, the following competition assay was used. Radioactive SH2 domains were incubated with pYEEI peptide beads and FKpYEEI or SLFpYEEI in the presence or absence of the respective FKBP proteins. FKpYEEI and FKpYEEI/FKBP as well as SLFpYEEI and SLFpYEEI/FKBP compete for binding of the SH2 domains with the peptide beads. The higher the affinity of the FKpYEEI or SLFpYEEI ligand in the supernatant, the less SH2 domain is bound to the peptide beads (FIG. 3).
Using the competition binding assay described above, FKpYEEI was added to peptide beads and the Fyn SH2 domain in the presence of increasing concentrations of FKBP52 (FIG. 4). In this assay, in 100 L binding reactions, radioactively labeled Fyn SH2 domain (200 nM) was incubated with 7.5 L of a 1:1 pYEEI bead slurry. No FKpYEEI, 1.0 M FKpYEEI or 1.0 M FKpYEEI plus increasing concentrations of FKBP52 (0.25-4.0 M) were added. The binding reactions were rotated at room temperature for 2 hours. The supernatant was separated from the beads by spinning the binding reactions in punctured PCR tubes for 1 sec in an Eppendorf centrifuge at maximal speed. The beads were resuspended in 100 1 PBS and the radioactivity bound to the beads was counted in a liquid scintillation vial for 30 sec. The radioactivity bound to the beads in the presence of only the Fyn SH2 domain was plotted as 100% of maximal Fyn SH2 domain binding to pYEEI beads. The radioactivity bound in the presence of FKpYEEI and FKBP52 was calculated as the percentage of maximal Fyn SH2 domain binding. Every binding reaction was done in triplicate. The data points reflect the average of the three binding reactions. The error bars indicate the standard error.
In this assay, in 100 L binding reactions, radioactively labeled Fyn SH2 domain (200 nM) was incubated with 7.5 L of a 1:1 pYEEI bead slurry. […] The binding reactions were rotated at room temperature for 2 hours, centrifuged and analysed as described above. […]

PLC SH2 domain = assay: Competition binding assay of radioactive PLC SH2 domain to pYEEI beads; settings: FKpYEEI 1.5 M plus FKBP12 2.0 M plus FK506 1.0-5.0 M
Source text: as §1, with “By increasing the amount of beads, up to 80% Fyn, 40% PLC and 25% Lck could be bound. These amounts reflect the active fraction of SH2 domains in the different protein preparations.” left out
The binary complex of FKpYEEI and FKBP 12 has the same affinity for the Fyn SH2 domain as free FKpYEEI (see FIG. 7). […] The binding reactions were rotated at room temperature for 2 hours, centrifuged and analysed as described above.
In this assay, in 100 L binding reactions, radioactively labeled PLC SH2 domain (400 nM) was incubated with 7.5 L of a 1:1 pYEEI bead slurry. […] The binding reactions were rotated at room temperature for 2 hours, centrifuged and analysed as described above. […]

albumin = albumin (Homo sapiens, UniProt P02768); settings: known ligand; read-out: IC50 as ligand for albumin; cited from earlier work
[1] = target: T2, alkaline phosphatase (Human Placenta) (Homo sapiens, UniProt P05187); assay: Alkaline phosphatase inhibition, Human Placenta isoform; assay type: biochemical; settings: for pIC50: Human Placenta, pH 10
T2 construct: roughly 2-fold for the eel intestine and human placenta isoforms of the enzyme; from tissue; host or cells: human placenta
Experimental: (§2) Reactions were conducted in 200 mM diethanolamine buffer, pH 10, with methylumbeliferal phosphate as the substrate. The reaction was monitored by recording fluorescence of the hydrolysis product (excitation at 355 nm, fluorescence at […]), and the first 10% of the reaction was used to determine the rate of the reaction.
(§3) In the presence of 100 μM human serum albumin, compound 1 was seen to be a better inhibitor for four of the enzymes tested relative to the inhibition seen in the absence of albumin.

[2] = tested on: alkaline phosphatase (Shrimp); assay: Alkaline phosphatase inhibition, Shrimp isoform; assay type: biochemical; settings: shrimp isoform; 100 μM human serum albumin vs none
Experimental: as §2, §3

[3] = target: alkaline phosphatase (Shrimp) (Pandalus borealis, UniProt Q9BHT8); assay: Alkaline phosphatase inhibition, Shrimp isoform; assay type: biochemical; settings: Shrimp, pH 10
Experimental: as §2, §3

[4] = target: alkaline phosphatase (Dog Intestine) (Canis lupus familiaris, UniProt A0A8C0LCK3); assay: Alkaline phosphatase inhibition, Dog Intestine isoform; assay type: biochemical
Experimental: as §2, §3

[5] = target: alkaline phosphatase (Bacteria) (Escherichia coli, UniProt P00634); assay: Alkaline phosphatase inhibition, Bacteria isoform; assay type: biochemical
Experimental: as §2, §3

[6] = target: alkaline phosphatase (Eel Intestine) (Anguilla anguilla, UniProt A0A9D3RXU0); assay: Alkaline phosphatase inhibition, Eel Intestine isoform; assay type: biochemical; settings: 100 μM human serum albumin vs none
Experimental: as §2, §3

[7] = target: T3, alkaline phosphatase (Bovine Milk) (Bos taurus, UniProt P09487); assay: Alkaline phosphatase inhibition, Bovine Milk isoform; assay type: biochemical
T3 construct: Bovine Milk; from tissue; host or cells: bovine milk
T3 sequence (P09487 18-499): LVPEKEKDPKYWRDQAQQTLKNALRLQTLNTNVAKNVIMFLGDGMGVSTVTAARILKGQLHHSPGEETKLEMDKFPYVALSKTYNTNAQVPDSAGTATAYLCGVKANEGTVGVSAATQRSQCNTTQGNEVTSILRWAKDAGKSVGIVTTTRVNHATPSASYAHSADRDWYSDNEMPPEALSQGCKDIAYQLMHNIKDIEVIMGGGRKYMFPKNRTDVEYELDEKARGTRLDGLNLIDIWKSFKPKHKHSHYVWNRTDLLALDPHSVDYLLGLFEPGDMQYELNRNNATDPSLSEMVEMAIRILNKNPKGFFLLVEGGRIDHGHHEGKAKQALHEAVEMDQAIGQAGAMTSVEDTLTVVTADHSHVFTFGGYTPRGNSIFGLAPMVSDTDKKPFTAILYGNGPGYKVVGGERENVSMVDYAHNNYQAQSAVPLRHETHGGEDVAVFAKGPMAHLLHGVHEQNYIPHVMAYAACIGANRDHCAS
Experimental: as §2, §3

[8] = target: alkaline phosphatase (Rabbit Intestine) (Oryctolagus cuniculus, UniProt G1SXE4); assay: Alkaline phosphatase inhibition, Rabbit Intestine isoform; assay type: biochemical; settings: 100 μM human serum albumin vs none
Experimental: as §2, §3

[9] = target: T4, alkaline phosphatase (Porcine Kidney) (Sus scrofa, UniProt A0A4X1W3F8); assay: Alkaline phosphatase inhibition, Porcine Kidney isoform; assay type: biochemical
T4 sequence (A0A4X1W3F8 1-524): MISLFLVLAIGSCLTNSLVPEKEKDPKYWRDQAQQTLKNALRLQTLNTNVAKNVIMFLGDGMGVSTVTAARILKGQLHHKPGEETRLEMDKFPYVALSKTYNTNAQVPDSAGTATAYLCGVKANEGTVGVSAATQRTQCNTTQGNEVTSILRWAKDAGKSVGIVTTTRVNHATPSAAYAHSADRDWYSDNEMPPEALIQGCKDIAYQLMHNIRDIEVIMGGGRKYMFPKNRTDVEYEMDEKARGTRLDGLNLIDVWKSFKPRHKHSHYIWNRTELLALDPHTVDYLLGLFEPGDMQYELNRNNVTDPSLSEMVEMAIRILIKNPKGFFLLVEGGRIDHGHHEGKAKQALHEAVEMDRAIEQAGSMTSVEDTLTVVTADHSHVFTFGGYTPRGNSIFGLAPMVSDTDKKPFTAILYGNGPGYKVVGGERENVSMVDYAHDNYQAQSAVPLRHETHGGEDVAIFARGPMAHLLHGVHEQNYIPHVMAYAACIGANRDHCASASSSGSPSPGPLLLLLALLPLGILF
Experimental: as §2, §3

[10] = 100 μM human serum albumin, pH 10, read-out: IC50 (100 μM albumin)
[11] = no albumin, pH 10, read-out: IC50 (no albumin)

T2 sequence (P05187 23-506): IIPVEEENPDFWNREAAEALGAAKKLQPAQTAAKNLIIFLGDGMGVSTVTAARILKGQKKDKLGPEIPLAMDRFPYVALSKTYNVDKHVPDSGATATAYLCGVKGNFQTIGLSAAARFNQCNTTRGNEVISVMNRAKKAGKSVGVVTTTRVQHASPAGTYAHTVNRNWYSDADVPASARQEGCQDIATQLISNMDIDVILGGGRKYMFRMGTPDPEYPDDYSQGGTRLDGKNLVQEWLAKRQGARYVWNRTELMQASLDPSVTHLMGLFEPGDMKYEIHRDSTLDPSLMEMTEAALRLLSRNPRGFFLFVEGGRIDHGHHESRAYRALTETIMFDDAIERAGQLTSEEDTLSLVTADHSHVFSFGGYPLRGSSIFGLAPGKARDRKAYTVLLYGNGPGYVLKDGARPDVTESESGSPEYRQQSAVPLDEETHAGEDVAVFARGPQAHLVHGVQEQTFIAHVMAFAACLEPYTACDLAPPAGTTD
T1 sequence (P06241 149-246 limits assumed): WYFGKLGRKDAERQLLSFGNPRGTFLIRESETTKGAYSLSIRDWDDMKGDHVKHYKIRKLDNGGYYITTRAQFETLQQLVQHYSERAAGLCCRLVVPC
Chain of alkaline phosphatase (Dog Intestine) (A0A8C0LCK3 23-522): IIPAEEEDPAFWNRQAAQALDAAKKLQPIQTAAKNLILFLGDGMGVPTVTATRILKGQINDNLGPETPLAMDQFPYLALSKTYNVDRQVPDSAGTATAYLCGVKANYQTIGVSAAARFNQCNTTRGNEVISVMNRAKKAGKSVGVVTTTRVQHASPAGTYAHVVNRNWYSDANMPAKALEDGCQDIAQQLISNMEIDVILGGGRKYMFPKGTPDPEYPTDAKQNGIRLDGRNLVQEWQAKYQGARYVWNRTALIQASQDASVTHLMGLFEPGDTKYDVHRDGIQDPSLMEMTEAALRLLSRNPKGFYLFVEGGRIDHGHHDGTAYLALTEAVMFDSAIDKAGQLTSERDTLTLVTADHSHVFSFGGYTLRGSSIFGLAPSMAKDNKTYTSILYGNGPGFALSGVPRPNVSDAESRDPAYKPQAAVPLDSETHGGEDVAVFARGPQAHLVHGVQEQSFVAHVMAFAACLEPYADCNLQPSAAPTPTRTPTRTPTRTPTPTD
Chain of alkaline phosphatase (Shrimp) (Pandalus borealis, UniProt Q9BHT8) (Q9BHT8 entry or part of it): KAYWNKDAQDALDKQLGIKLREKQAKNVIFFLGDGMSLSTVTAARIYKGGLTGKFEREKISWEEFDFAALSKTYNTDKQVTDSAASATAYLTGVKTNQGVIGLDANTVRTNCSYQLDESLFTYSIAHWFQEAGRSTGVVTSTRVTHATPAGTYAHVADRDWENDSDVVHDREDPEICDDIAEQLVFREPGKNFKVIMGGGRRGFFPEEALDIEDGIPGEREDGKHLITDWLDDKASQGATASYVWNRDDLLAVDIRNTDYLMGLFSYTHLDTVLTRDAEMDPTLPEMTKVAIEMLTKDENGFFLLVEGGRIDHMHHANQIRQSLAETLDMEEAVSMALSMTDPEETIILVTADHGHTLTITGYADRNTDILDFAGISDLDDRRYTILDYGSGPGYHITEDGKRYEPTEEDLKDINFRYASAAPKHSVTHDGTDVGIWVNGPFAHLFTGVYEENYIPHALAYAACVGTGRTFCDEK
Chain of alkaline phosphatase (Bacteria) (P00634 22-471): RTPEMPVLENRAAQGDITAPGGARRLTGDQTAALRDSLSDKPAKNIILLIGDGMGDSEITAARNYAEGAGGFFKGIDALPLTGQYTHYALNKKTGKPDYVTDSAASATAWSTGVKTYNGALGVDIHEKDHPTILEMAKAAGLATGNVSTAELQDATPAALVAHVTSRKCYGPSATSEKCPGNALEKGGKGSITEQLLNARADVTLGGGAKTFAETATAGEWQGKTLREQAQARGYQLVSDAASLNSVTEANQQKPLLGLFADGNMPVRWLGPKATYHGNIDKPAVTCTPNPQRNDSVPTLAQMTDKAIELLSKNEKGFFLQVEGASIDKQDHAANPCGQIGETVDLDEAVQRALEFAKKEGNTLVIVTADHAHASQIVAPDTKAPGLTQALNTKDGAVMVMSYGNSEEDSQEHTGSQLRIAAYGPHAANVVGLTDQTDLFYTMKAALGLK
Chain of alkaline phosphatase (Rabbit Intestine) (G1SXE4 25-504): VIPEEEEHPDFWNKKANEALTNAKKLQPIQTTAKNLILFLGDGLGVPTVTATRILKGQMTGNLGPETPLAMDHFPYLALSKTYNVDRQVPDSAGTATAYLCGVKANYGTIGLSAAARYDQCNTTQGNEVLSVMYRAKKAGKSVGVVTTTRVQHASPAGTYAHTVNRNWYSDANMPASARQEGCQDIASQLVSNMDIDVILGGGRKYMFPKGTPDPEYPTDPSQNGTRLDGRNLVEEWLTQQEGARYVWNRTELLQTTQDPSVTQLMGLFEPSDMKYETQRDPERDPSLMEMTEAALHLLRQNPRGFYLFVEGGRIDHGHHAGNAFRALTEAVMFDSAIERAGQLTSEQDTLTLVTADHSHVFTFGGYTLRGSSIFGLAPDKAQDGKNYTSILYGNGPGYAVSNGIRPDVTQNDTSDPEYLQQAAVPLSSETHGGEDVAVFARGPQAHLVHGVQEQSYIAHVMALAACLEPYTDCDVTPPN
Chain of alkaline phosphatase (Eel Intestine) (A0A9D3RXU0 entry or part of it): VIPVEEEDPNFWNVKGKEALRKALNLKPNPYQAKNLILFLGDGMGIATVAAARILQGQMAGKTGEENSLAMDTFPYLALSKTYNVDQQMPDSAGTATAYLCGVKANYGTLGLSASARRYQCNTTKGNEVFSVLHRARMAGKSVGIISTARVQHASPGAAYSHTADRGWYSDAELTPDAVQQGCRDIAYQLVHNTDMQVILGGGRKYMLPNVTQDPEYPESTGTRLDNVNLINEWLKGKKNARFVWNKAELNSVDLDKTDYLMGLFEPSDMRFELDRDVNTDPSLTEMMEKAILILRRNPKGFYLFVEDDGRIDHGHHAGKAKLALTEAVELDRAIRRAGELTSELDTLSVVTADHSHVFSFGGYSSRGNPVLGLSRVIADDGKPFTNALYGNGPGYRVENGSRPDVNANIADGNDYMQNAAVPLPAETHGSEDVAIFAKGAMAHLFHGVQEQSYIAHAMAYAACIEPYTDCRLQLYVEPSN
Chain of albumin (P02768 25-609): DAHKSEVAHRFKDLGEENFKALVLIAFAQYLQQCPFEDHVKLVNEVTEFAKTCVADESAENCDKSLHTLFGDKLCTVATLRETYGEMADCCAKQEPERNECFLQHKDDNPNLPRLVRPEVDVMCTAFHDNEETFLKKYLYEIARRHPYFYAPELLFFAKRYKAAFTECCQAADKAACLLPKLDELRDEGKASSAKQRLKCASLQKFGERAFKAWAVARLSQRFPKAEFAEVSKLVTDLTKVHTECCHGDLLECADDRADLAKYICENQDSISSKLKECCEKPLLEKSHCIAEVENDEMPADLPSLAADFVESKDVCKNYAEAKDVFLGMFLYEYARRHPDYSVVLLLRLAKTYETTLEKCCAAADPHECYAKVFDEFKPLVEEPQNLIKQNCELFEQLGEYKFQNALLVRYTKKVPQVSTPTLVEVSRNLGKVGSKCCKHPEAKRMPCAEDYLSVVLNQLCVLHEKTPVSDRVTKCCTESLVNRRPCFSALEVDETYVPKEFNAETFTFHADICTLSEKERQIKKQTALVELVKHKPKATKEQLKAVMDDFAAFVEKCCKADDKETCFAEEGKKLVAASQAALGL

SMILES: CC(C)(S)[C@@H](N)C(=O)O [Penicillamine]
IC 50 values for a wide variety of alkaline phosphatase isoforms (alkaline phosphatase): in the μM range

Effect of added FK506 on the FKBP12 effect (Fyn SH2 domain; SLFpYEEI 1.0 M plus FKBP12 2.0 M plus FK506 1.0-3.0 M): reverses the effect of reduced affinity
Effect of added FK506 on the FKBP12 effect (PLC SH2 domain): the affinity reduction is reversed
SMILES: C=CC[C@@H]1/C=C(\C)C[C@H](C)C[C@H](OC)[C@H]2O[C@@](O)(C(=O)C(=O)N3CCCC[C@H]3C(=O)O[C@H](/C(C)=C/[C@@H]3CC[C@@H](O)[C@H](OC)C3)[C@H](C)[C@@H](O)CC1=O)[C@H](C)C[C@@H]2OC [FK506, reference compound]
Effect of added FK506 on the FKBP52 effect (Fyn SH2 domain; FKpYEEI 1.0 M plus FKBP52 2.0 M plus FK506 0.25-15.0 M): the affinity enhancing effect of FKBP52 is reversed

SMILES: Nc1ccc(C(=O)O)c(O)c1 [para-amino salicylic acid]
pIC50 (albumin): 5.30

SMILES: CC(C)(S)C(N)C(=O)NCC(=O)Nc1ccc(C(=O)O)c(O)c1 (stereo not drawn) [Compound 1]
pIC50 ([1]; 100 μM human serum albumin, read-out: IC50 (100 μM albumin)): 4.35
pIC50 ([1]; no albumin, read-out: IC50 (no albumin)): 3.52
Decrease of IC50 in the presence of albumin ([1]; human placenta isoform, 100 μM human serum albumin vs none): roughly 2 fold
Decrease of IC50 in the presence of albumin [2]: roughly 12 fold
pIC50 ([3]; IC50 (100 μM albumin), 100 μM human serum albumin): 4.10
pIC50 ([3]; IC50 (no albumin), no albumin): 2.52
pIC50 ([4]; read-out: IC50 (100 μM albumin), 100 μM human serum albumin, pH 10): 4.70
pIC50 ([4]; read-out: IC50 (no albumin), no albumin, pH 10): 4.70
pIC50 [5]: 4.30
pIC50 ([5]; read-out: IC50 (100 μM albumin), Bacteria, 100 μM human serum albumin, pH 10): 4.30
Decrease of IC50 in the presence of albumin [6]: roughly 2 fold
pIC50 [7, 10]: 4.30
pIC50 [7, 11]: 4.30
Decrease of IC50 in the presence of albumin [8]: roughly 12 fold
pIC50 [9, 10]: 4.30
pIC50 [9, 11]: 4.30
